# Laboratory results reported in patent US4024256A, “Method and composition for treating urinary tract infections” (priority 1975, dated 1977).
# Several values for one entry are separate records, joined by “and”; a condition that tells them apart may be missing. Equal values may be shown once. Entries after “also recorded” stand apart in the source; their conditions may differ. Read-outs that look alike come from different tables or passages of the source.
# Assays:
# bacterial urease = settings: cited from earlier work
# Proteus mirabilis [1] = assay: Proteus mirabilis infected bladder stones (zinc disc) in rats; format: in vivo, male Sprague-Dawley rats
# Method: This example was carried out to illustrate the effectiveness of administering a source of hydroxamate groups, e.g., acetohydroxamic acid in eliminating the pathogenicity of urinary tract infections and in dissolving or reducing infected bladder stones.
# The formation of infected bladder stones was induced in 250 gram male Sprague-Dawley rats, according to the method described in "Experimental Urolithiasis VIII -- Furadantin in Treatment of Experimental Proteus Infection with Stone Formation" C. W. Vermuelen and R. Goetz, Journal of Urology, 72:99, 1954. Rats wer anesthetized with ether and the abdominal wall swabbed with 70% ethyl alcohol. The urinary bladder was entered through a small suprapubic incision. Zinc discs, 6 mm. in diameter, were dipped into a saline suspension containing 10^7 Proteus mirabilis per ml (infective discs) and immediately inserted into the bladder. Discs handled in this fashion carried 10^5 ± 15% organisms. The bladder was closed with a single purse-string suture of 3-0 chromic catgut, and the skin was approximated with metallic clips. All animals were fasted overnight following the surgical procedure and resumed their usual diet the following day.
# Rats were housed individually in stainless steel metabolic cages and were fed Purina Rat Chow pellets ad lib. Fluid was given in stainless steel cups as a solution of 5-20% sucrose in water.
# [2] = characteristics of acetohydroxamic acid (Table 1), pKa; format: physicochemical
# Description: These aliphatic hydroxamic acids including formohydroxamic acid, acetohydroxamic acid, propionohydroxamic acid and isobutyhydroxamic acid. […] This source of hydroxamate groups has the following characteristics: […]
# Proteus mirabilis [3] = assay: dynamic model of the urinary tract (FIGS. 16, 17); format: cell-based
# Method: This example was carried out using a dynamic model as described in connection with Example 2. […] Proteus species, isolated from the urine of patients with known urinary infection, were maintained in the laboratory by monthly transfer on agar […]. These organisms grew to about 10^9 colony forming units (cfu) per ml after overnight growth at 37° C in brain heart infusion broth (BHI). […] The pH of this synthetic urine was 5.85. […] In this dynamic system urine with or without acetohydroxamic acid was pumped at 48 ml/hr from reservoirs via an auto-analyzer pump into reaction chambers which were incubated in a shaking water bath at 37° C. […] Every six hours the reaction chambers were emptied except for a 5 ml residual, and the sequence was repeated. In these experiments the pH, ammonia concentration and cfu per ml urine were determined for each reaction chamber at the end of each six hour period.
# Proteus species [4] = assay: static study in synthetic urine: inhibition of alkalinization by Proteus species; format: cell-based; settings: for effect on alkalinization: methenamine 0.9 mg/ml
# Method: (§1) Static studies were conducted to illustrate the synergistic effect achieved in accordance with the present invention through the combined employment of a source of methenamine, i.e., methenamine itself and a source of hydroxamate groups, i.e., acetohydroxamic acid. In order to achieve reproducibility of results with large quantities or urine required for these studies a synthetic urine was formulated based on the proportion of solutes found in the urine from normal human subjects. The composition of such urine was as follows: Brain heart infusion (BHI) broth in a final concentration of 5% was added to support bacterial growth. The pH of the synthetic urine prior to addition of the BHI broth was 5.7 - 5.8. […] In these tests the methenamine was utilized in a final concentration of 0.9 milligrams per milliliter. […] Dally and […], 1969, Analytical BioChem 28:13-21. […] These concentrations which were selected in the static studies were concentrations which would be achievable in the urine of patients with normal renal function. […] At each pH level a set of four tubes was obtained, with these tubes being as follows: 1. Urine alone (control); 2. Urine plus methenamine; 3. Urine plus acetohydroxamic acid; and 4. Urine plus acetohyroxamic acid plus methenamine. […] At varying time intervals aliquots were removed for pH determination and bacterial enumeration by serial tenfold dilution.
# Proteus rettgeri [5] = assay: dynamic study resembling a Proteus infected human bladder (FIG. 3); format: cell-based
# Method: Dynamic studies were conducted to further illustrate the synergistic effect associated with the combined presence of a source of methenamine, i.e., methenamine itself and a source of hyroxamate groups, i.e., acetohydroxamic acid in the urine. […] Utilizing a multicassetts roller pump, urine of a pH of 5.85 was pumped at 40 milliliters per hour from three reservoir flasks into three reaction chambers. […] An aqueous solution of 18 milligrams per milliliter of methenamine at a pH of 7.5 was pumped into reaction chambers 1 and 3 at a rate of two milliliters per hour yielding a final concentration of methenamine of 0.9 milligrams per milliliter. […] The reaction chambers contained gently rotating magnetic stirrers and were kept in a warm bath at 37° C. […] At 4 - 6 hour intervals the volume of urine in each reaction chamber was recorded, the pH of each reaction chamber was determined and serial dilutions were carried out for bacterial enumeration.
# Proteus species [6] = assay: static study in synthetic urine: anti-bacterial effect, all Proteus species studied; format: cell-based; settings: general statement
# Method: as §1
# Proteus [7] = assay: static-dynamic system, bacteriostasis against Proteus, statements over all experiments; format: cell-based, Proteus mirabilis, Proteus rettgeri, Proteus morgani
# Method: In this example in vitro investigations were carried out using a static-dynamic system delineating (1) bacteriostatic dose-response relation for methenamine against Proteus, and (2) a synergistic bacteriostatic dose-response relation for methenamine and acetohydroxamic acid against Proteus. […] The tubes were placed in a bacteriological incubator at 37° C. […] Incubation of the tubes at 37° and sequential dilutions were made a 6 hour intervals for 24 hours. The variables for each of eight experiments are detailed in Table 2. Bacterial colony forming units (cfu) and urine pH were determined at the beginning and at the completion of each six hour incubation. The cfu units present after six hours of incubation are graphed in FIGS. 4-15. […] When bacteriostatis was absent, the number of cfu after six hours of incubation was equal to or greater than the number of cfu at the beginning of incubation. A strain of Proteus mirabilis isolated from the urine of patients with urinary tract infections was used in most experiments. Overnight growth in brain heart infusion (BHI) broth regularly produced 10^9 cfu/ml. The overnight culture was centrifuged at 3000 rpm for 20 minutes. The supernatant was discharged, and the bacterial pellet was resuspended in an equal volume of synthetic urine. […]
# Proteus rettgeri [8] = assay: static study in synthetic urine: viable bacteria, Proteus rettgeri (FIG. 2); format: cell-based
# Method: as §1
# [9] = system: urease producing bacteria; settings: cited from earlier work
# Proteus mirabilis [10] = assay: static-dynamic system, bacteriostasis against Proteus mirabilis (Experiments A-J); format: cell-based
# Method: In this example in vitro investigations were carried out using a static-dynamic system delineating (1) bacteriostatic dose-response relation for methenamine against Proteus, and (2) a synergistic bacteriostatic dose-response relation for methenamine and acetohydroxamic acid against Proteus. […] The tubes were placed in a bacteriological incubator at 37° C. […] Incubation of the tubes at 37° and sequential dilutions were made a 6 hour intervals for 24 hours. The variables for each of eight experiments are detailed in Table 2. Bacterial colony forming units (cfu) and urine pH were determined at the beginning and at the completion of each six hour incubation. The cfu units present after six hours of incubation are graphed in FIGS. 4-15. […] When bacteriostatis was absent, the number of cfu after six hours of incubation was equal to or greater than the number of cfu at the beginning of incubation. A strain of Proteus mirabilis isolated from the urine of patients with urinary tract infections was used in most experiments. Overnight growth in brain heart infusion (BHI) broth regularly produced 10^9 cfu/ml. The overnight culture was centrifuged at 3000 rpm for 20 minutes. The supernatant was discharged, and the bacterial pellet was resuspended in an equal volume of synthetic urine. The bacteria were resuspended in synthetic urine to prevent differences in pH as the bacteria were inoculated into tubes of synthetic urine. […] The results are illustrated in FIGS. 4-15 which relates respectively to Experiment A-L of Table 2. Each of FIGS. 4-15 represents colony forming units (cfu) present at the completion of six hour incubations. 100-fold dilutions were made prior to initiating subsequent six hour incubations. Each figure also includes a line representative of theoretically perfect bacteriostasis.
# [11] = cited from earlier work
# Proteus [12] = assay: preliminary investigations in the dynamic system; format: cell-based; settings: methenamine 0.9 mg/ml
# Description: Utilizing a multicassetts roller pump, urine of a pH of 5.85 was pumped at 40 milliliters per hour from three reservoir flasks into three reaction chambers. […] An aqueous solution of 18 milligrams per milliliter of methenamine at a pH of 7.5 was pumped into reaction chambers 1 and 3 at a rate of two milliliters per hour yielding a final concentration of methenamine of 0.9 milligrams per milliliter. […] The reaction chambers contained gently rotating magnetic stirrers and were kept in a warm bath at 37° C.
# [13] = individual animal, average of day individual values, listed as AHA
# [14] = individual animal, listed as AHA
smiles,measurement,setting,value
CC(=O)NO [acetohydroxamic acid],urease inhibiting effect,bacterial urease,appear to possess the greatest urease inhibiting effect
same,"concentration of acetohydroxamic acid in urine, mean","150 mg offered daily orally, average 100 mg ingested",2.88 mg/mL
same,Urine Acetohy.,[13],.3 mg/mL and 1.5 mg/mL and 2.5 mg/mL and 1.3 mg/mL and .9 mg/mL and 1.6 mg/mL and .5 mg/mL
same,urine pH (group),Proteus mirabilis [1]; acetohydroxamic acid treated animals,remained in the normal range; also recorded: in the physiological range
same,gross evidence of pyelonephritis or renal stone formation (group),Proteus mirabilis [1]; autopsy,none had gross evidence of pyelonephritis or renal stone formation
same,kidney histology (group),Proteus mirabilis [1]; autopsy,nearly all had normal kidneys histologically
same,Autopsy Gross Kidney,Proteus mirabilis [1]; individual animal,Normal
same,Autopsy Urine bacteria/ml,Proteus mirabilis [1]; individual animal,> 10^5 bacteria/ml
same,survival of animal,Proteus mirabilis [1]; individual animal,Expired
same,Urine pH,Proteus mirabilis [1]; [13],7.4 and 6.6 and 6.7 and 7.0 and 6.3 and 6.5 and 6.4
same,Autopsy Microscopic Kidney,Proteus mirabilis [1]; [14],Pyelonephritis; also recorded: Normal
same,Autopsy Stone Composition,Proteus mirabilis [1]; [14],Struvite; also recorded: Apatite
same,Autopsy Stone wt.,Proteus mirabilis [1]; [14],12 mg and 4 mg and 21 mg and 11 mg and 1 mg and 19 mg and 3 mg and 7 mg
same,tissue damage and virulence of the disease,Proteus mirabilis [1]; infected rats,tissue damage and virulence of the disease decreased
same,"P, difference in mean urine pH between control and treated groups","Proteus mirabilis [1]; rat, in vivo",< 0.01
same,"P, difference in stone formation between control and treated groups","Proteus mirabilis [1]; rat, in vivo",< 0.01
same,Proteus mirabilis in urine at autopsy (group),Proteus mirabilis [1]; seventh day,greater than 10^5 per ml
same,bladder stone formation (group),Proteus mirabilis [1]; seventh day,minimal; also recorded: significantly less bladder stone formation than the control rats
same,pKa,[2],9.32
same,effect on pH,Proteus mirabilis [3]; acetohydroxamic acid 1 mg/ml without methenamine,maintained the pH at normal levels
same,bacterial growth,"Proteus mirabilis [3]; acetohydroxamic acid, higher concentration 1.0 mg/ml (FIG. 16)",slightly inhibited bacterial growth
same,inhibition of alkalinization,"Proteus species [4]; acetohydroxamic acid 1.9 mg/ml, synthetic urine, 37°",inhibited alkalinizaton for the first eight hours
same,time within which effect as urease inhibitor was overcome,"Proteus species [4]; acetohydroxamic acid 1.9 mg/ml, bacterial proliferation leading to alkaline pH",≤ 24 h
same,alkalinization,Proteus rettgeri [5]; acetohydroxamic acid 1.9 mg/ml,alkalinization of Proteus was inhibited
same,bacteriostatic effect,Proteus rettgeri [5]; acetohydroxamic acid 1.9 mg/ml,minor bacteriostatic effect
same,anti-bacterial effect with regard to bacteria of the species Proteus,Proteus species [6],slight anti-bacterial effect
same,bacteriostatic effect,Proteus [7]; acetohydroxamic acid ≤0.9 mg/ml,no bacteriostatic effect
same,bacteriostatic effect,Proteus rettgeri [8]; acetohydroxamic acid 1.9 mg/ml,slight bacteriostatic effect
same,number of bacteria,"Proteus rettgeri [8]; acetohydroxamic acid 1.9 mg/ml, within eight to eighteen hours",~10^8 per milliliter
O=CNO [formohydroxamic acid],urease inhibiting effect,bacterial urease,appear to possess the greatest urease inhibiting effect
CC(C)C(=O)NO [isobutyhydroxamic acid],urease inhibiting effect,bacterial urease,appear to possess the greatest urease inhibiting effect
C1N2CN3CN1CN(C2)C3 [methenamine mandelate],effect on overcoming the alkalinization of the urine,[9]; urinary infections produced by urease producing bacteria,no real effect on overcoming the alkalinization of the urine
"C1N2CN3CN1CN(C2)C3 [methenamine, hexamethenamine tetramine]",effectiveness at alkaline pH,"[9]; methenamine alone, typical anti-bacterial dosage, alkaline pH",not effective at an alkaline pH
same,anti-bacterial effect of the methenamine,[9]; pH of the urine reaches 6.5,totally diminished
same,bacteriostatic effect in alkaline urine versus acidic urine,"Proteus mirabilis [10]; alkaline urine (FIGS. 12 and 13; experiments I, J)",much less bacteriostatic in alkaline urine
same,bacteriostatic activity,"Proteus mirabilis [10]; methenamine 0.05 mg/ml, pH 5.9, 10^4 /ml and 10^5 /ml (Experiments A, B)",some bacteriostatic activity; also recorded: mild bacteriostatic effect
same,bacteriostasis,"Proteus mirabilis [10]; methenamine 0.05 mg/ml, ≥10^6 /ml Proteus (Experiments C through H)",no bacteriostasis
same,bacteriostatic activity,"Proteus mirabilis [10]; methenamine 0.05 mg/ml, ≥ 10^6 Proteus/ml (FIGS. 4-7)",little or no bacteriostatic activity
same,bacteriostatic effect compared with methenamine 0.1 mg/ml,"Proteus mirabilis [10]; methenamine 0.2 mg/ml (FIGS. 8, 9)",consistently exerted a greater bacteriostatic effect than did methenamine 0.1 mg/ml
same,bacteriostasis,"Proteus mirabilis [10]; methenamine 0.2 mg/ml, acidic urine (Experiments E and F)",bacteriostasis
same,effect on pH,Proteus mirabilis [3]; lower concentrations of methenamine,the pH rapidly became alkaline and remained so throughout
same,bacterial growth,Proteus mirabilis [3]; methenamine alone 0.5 mg/ml (FIG. 16),slightly inhibited bacterial growth
same,effect on pH,"Proteus mirabilis [3]; methenamine alone, 0.5 mg/ml",initial tendency for the pH to neutralize in the presence of methenamine alone was overcome by the end of 18-24 hours
same,effect on alkalinization,Proteus species [4]; between pH 5.3 and 6.5,alkalinization was inhibited in proportion to the initial urine acidity
same,effect on alkalinization,Proteus species [4]; initial pH less than 5.3,only a slight upward drift was observed
same,effect on alkalinization,Proteus species [4]; pH greater than 6.5,did not alter progressive alkalinization
same,colony count by the end of the second time period and throughout,Proteus rettgeri [5]; methenamine 0.9 mg/ml,greater than 10^7 per milliliter
same,"number of bacteria, first six hours",Proteus rettgeri [5]; methenamine 0.9 mg/ml,fell slightly during the first six hours
same,pH at the end of each four to eight hour period,Proteus rettgeri [5]; methenamine 0.9 mg/ml,exceeded 8.5
same,release of formaldehyde,[11]; pH 5.0,excellent release of formaldehyde
same,release of formaldehyde,[11]; pH 5.5,good release of formaldehyde
same,release of formaldehyde,[11]; pH 6.0,generally adequate for the treatment of most urinary tract infections
same,conversion and release of formaldehyde,[11]; pH of the urine 6.5,insufficient conversion and release of formaldehyde
same,bacteriostasis,"Proteus [7]; methenamine 0.1 mg/ml, acidic urine, 10^4 - 10^7 per ml",bacteriostasis
same,growth of Proteus and alkalinization of urine versus synthetic urine alone,Proteus [12],affected growth of Proteus and alkalinization of urine only slightly
same,"anti-bacterial effect, dependence on initial pH",Proteus rettgeri [8]; methenamine 0.9 mg/ml,proportional to the initial pH
CCC(=O)NO [propionohydroxamic acid],urease inhibiting effect,bacterial urease,appear to possess the greatest urease inhibiting effect
